The text below walks through data of article PMC5677563 (Inorganic chemistry, 2017).

The target of the test is T1, cytochrome c′ (AXCP) (Achromobacter xylosoxidans, UniProt P00138, L16G).
T1 sequence (P00138 1-127 L16G): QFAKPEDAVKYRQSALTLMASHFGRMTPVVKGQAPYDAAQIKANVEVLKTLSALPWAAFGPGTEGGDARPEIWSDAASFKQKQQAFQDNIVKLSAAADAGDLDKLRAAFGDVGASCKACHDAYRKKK
Description: UV-vis titration. Type of test: binding.

In turn, `O=NO` [nitrite] yielded an equilibrium dissociation constant (Kd) of 500 ± 150 µM.

The term Kd denotes the constant that tells how readily two partners part at equilibrium. Low values mean a tighter complex, high ones a looser complex.
